Data from patent publication US20060154243A1 (priority 2003, published 2006).

Key:
[1] = system: rabbit serum obtained by immunizing with SARS-CoV strain Frankfurt 1; format: binding
[2] = system: sera SARS-green, SARS-yellow, 1a, 1b, 2, 6, 37, 62 and London; format: binding, human
[3] = system: control serum LUMC (pooled serum of ten healthy hospital workers); format: binding, human
[4] = system: control serum Blood-bank (commercial negative donor pooled serum); format: binding, human

Sequence: ATTEELPDEFVVVTA
- Rabbit serum linear peptides [1]: 0.1
- Rabbit serum looped peptides [1]: 0.5
- Recognition of the peptide by sera of individuals infected by SARS-CoV, form recognized [2]: recognized in linear and in looped form

Sequence: CICTVVQRCASNKPH
- Rabbit serum linear peptides [1]: 0.0
- Rabbit serum looped peptides [1]: 0.5
- Recognition of the peptide by sera of individuals infected by SARS-CoV, form recognized [2]: recognized in linear and in looped form

Sequence: CSCICTVVQRCASNK
- Rabbit serum linear peptides [1]: 0.1
- Rabbit serum looped peptides [1]: 0.0
- Recognition of the peptide by sera of individuals infected by SARS-CoV, form recognized [2]: recognized in linear and in looped form

Sequence: DPNQTNVVPPALHLV
- Rabbit serum linear peptides [1]: 2.3
- Rabbit serum looped peptides [1]: 0.2
- Recognition of the peptide by sera of individuals infected by SARS-CoV, form recognized [2]: recognized in linear and in looped form

Sequence: FSLEIQDLEEPCTKV
- Rabbit serum linear peptides [1]: 0.4
- Rabbit serum looped peptides [1]: 0.5
- Control serum LUMC linear peptides [3]: 0.6
- Control serum LUMC looped peptides [3]: 0.7
- Control Serum Blood-Bank Looped peptides [4]: 1.0
- Control serum Blood-bank linear peptides [4]: 0.7
- Recognition of the peptide by sera of individuals infected by SARS-CoV, form recognized [2]: recognized in linear and in looped form

Sequence: FWFSLEIQDLEEPCT
- Rabbit serum linear peptides [1]: 0.1
- Rabbit serum looped peptides [1]: 0.5
- Control serum LUMC linear peptides [3]: 0.3
- Control serum LUMC looped peptides [3]: 0.8
- Control Serum Blood-Bank Looped peptides [4]: 1.1
- Control serum Blood-bank linear peptides [4]: 0.5
- Recognition of the peptide by sera of individuals infected by SARS-CoV, form recognized [2]: recognized in linear and in looped form

Sequence: IFWFSLEIQDLEEPC
- Rabbit serum linear peptides [1]: 0.3
- Rabbit serum looped peptides [1]: 0.5
- Control serum LUMC linear peptides [3]: 0.7
- Control serum LUMC looped peptides [3]: 0.8
- Control Serum Blood-Bank Looped peptides [4]: 0.8
- Control serum Blood-bank linear peptides [4]: 0.8
- Recognition of the peptide by sera of individuals infected by SARS-CoV, form recognized [2]: recognized in linear and in looped form

Sequence: IIFWFSLEIQDLEEP
- Rabbit serum linear peptides [1]: 0.4
- Rabbit serum looped peptides [1]: 0.0
- Control serum LUMC linear peptides [3]: 0.7
- Control serum LUMC looped peptides [3]: 0.8
- Control Serum Blood-Bank Looped peptides [4]: 0.9
- Control serum Blood-bank linear peptides [4]: 0.9
- Recognition of the peptide by sera of individuals infected by SARS-CoV, form recognized [2]: recognized in linear and in looped form

Sequence: IMLIIFWFSLEIQDL
- Rabbit serum linear peptides [1]: 0.9
- Rabbit serum looped peptides [1]: 0.1
- Control serum LUMC linear peptides [3]: 0.7
- Control serum LUMC looped peptides [3]: 0.4
- Control Serum Blood-Bank Looped peptides [4]: 0.6
- Control serum Blood-bank linear peptides [4]: 0.8
- Recognition of the peptide by sera of individuals infected by SARS-CoV, form recognized [2]: recognized in linear and in looped form

Sequence: ITRMEDAMGQGQNSA
- Rabbit serum linear peptides [1]: 0.1
- Rabbit serum looped peptides [1]: 0.4
- Recognition of the peptide by sera of individuals infected by SARS-CoV, form recognized [2]: only recognized in looped form

Sequence: KLATTEELPDEFVVV
- Rabbit serum linear peptides [1]: 0.2
- Rabbit serum looped peptides [1]: 0.5
- Recognition of the peptide by sera of individuals infected by SARS-CoV, form recognized [2]: recognized in linear and in looped form

Sequence: LATTEELPDEFVVVT
- Rabbit serum linear peptides [1]: 0.1
- Rabbit serum looped peptides [1]: 0.6
- Recognition of the peptide by sera of individuals infected by SARS-CoV, form recognized [2]: recognized in linear and in looped form

Sequence: LCFLAFLLFLVLIML
- Rabbit serum linear peptides [1]: 0.2
- Rabbit serum looped peptides [1]: 0.3
- Control serum LUMC linear peptides [3]: 0.4
- Control serum LUMC looped peptides [3]: 0.4
- Control Serum Blood-Bank Looped peptides [4]: 0.7
- Control serum Blood-bank linear peptides [4]: 0.7

Sequence: LFLVLIMLIIFWFSL
- Rabbit serum linear peptides [1]: 0.4
- Rabbit serum looped peptides [1]: 0.5
- Control serum LUMC linear peptides [3]: 0.4
- Control serum LUMC looped peptides [3]: 0.4
- Control Serum Blood-Bank Looped peptides [4]: 0.8
- Control serum Blood-bank linear peptides [4]: 0.8

Sequence: LIDFYLCFLAFLLFL
- Rabbit serum linear peptides [1]: 0.3
- Rabbit serum looped peptides [1]: 0.3
- Control serum LUMC linear peptides [3]: 0.4
- Control serum LUMC looped peptides [3]: 0.7
- Control Serum Blood-Bank Looped peptides [4]: 0.5
- Control serum Blood-bank linear peptides [4]: 0.7

Sequence: LLFLVLIMLIIFWFS
- Rabbit serum linear peptides [1]: 0.5
- Rabbit serum looped peptides [1]: 0.6
- Control serum LUMC linear peptides [3]: 0.4
- Control serum LUMC looped peptides [3]: 0.4
- Control Serum Blood-Bank Looped peptides [4]: 0.9
- Control serum Blood-bank linear peptides [4]: 0.9

Sequence: LTITRMEDAMGQGQN
- Rabbit serum linear peptides [1]: 0.3
- Rabbit serum looped peptides [1]: 0.3
- Recognition of the peptide by sera of individuals infected by SARS-CoV, form recognized [2]: only recognized in looped form

Sequence: LTLIDFYLCFLAFLL
- Rabbit serum linear peptides [1]: 0.3
- Rabbit serum looped peptides [1]: 0.5
- Control serum LUMC linear peptides [3]: 0.8
- Control serum LUMC looped peptides [3]: 0.7
- Control Serum Blood-Bank Looped peptides [4]: 0.5
- Control serum Blood-bank linear peptides [4]: 0.9

Sequence: LVLIMLIIFWFSLEI
- Rabbit serum linear peptides [1]: 0.4
- Rabbit serum looped peptides [1]: 0.6
- Control serum LUMC linear peptides [3]: 0.8
- Control serum LUMC looped peptides [3]: 0.3
- Control Serum Blood-Bank Looped peptides [4]: 0.7
- Control serum Blood-bank linear peptides [4]: 0.9

Sequence: MEDAMGQGQNSADPK
- Rabbit serum linear peptides [1]: 0.1
- Rabbit serum looped peptides [1]: 0.4
- Recognition of the peptide by sera of individuals infected by SARS-CoV, form recognized [2]: only recognized in looped form

Sequence: MNELTLIDFYLCFLA
- Rabbit serum linear peptides [1]: 0.4
- Rabbit serum looped peptides [1]: 0.5
- Control serum LUMC linear peptides [3]: 1.1
- Control serum LUMC looped peptides [3]: 0.9
- Control Serum Blood-Bank Looped peptides [4]: 0.5
- Control serum Blood-bank linear peptides [4]: 0.7

Sequence: MTKLATTEELPDEFV
- Rabbit serum linear peptides [1]: 0.1
- Rabbit serum looped peptides [1]: 0.6
- Recognition of the peptide by sera of individuals infected by SARS-CoV, form recognized [2]: recognized in linear and in looped form

Sequence: NELTLIDFYLCFLAF
- Rabbit serum linear peptides [1]: 0.4
- Rabbit serum looped peptides [1]: 0.8
- Control serum LUMC linear peptides [3]: 0.6
- Control serum LUMC looped peptides [3]: 0.9
- Control Serum Blood-Bank Looped peptides [4]: 0.5
- Control serum Blood-bank linear peptides [4]: 0.6

Sequence: NQTNVVPPALHLVDP
- Rabbit serum linear peptides [1]: 0.1
- Rabbit serum looped peptides [1]: 0.4
- Recognition of the peptide by sera of individuals infected by SARS-CoV, form recognized [2]: recognized in linear and in looped form

Sequence: PALHLVDPQIQLTIT
- Rabbit serum linear peptides [1]: 1.3
- Rabbit serum looped peptides [1]: 0.4
- Recognition of the peptide by sera of individuals infected by SARS-CoV, form recognized [2]: recognized in linear and in looped form

Sequence: PNQTNVVPPALHLVD
- Rabbit serum linear peptides [1]: 0.4
- Rabbit serum looped peptides [1]: 0.2
- Recognition of the peptide by sera of individuals infected by SARS-CoV, form recognized [2]: recognized in linear and in looped form

Sequence: PPALHLVDPQIQLTI
- Rabbit serum linear peptides [1]: 0.2
- Rabbit serum looped peptides [1]: 0.3
- Recognition of the peptide by sera of individuals infected by SARS-CoV, form recognized [2]: recognized in linear and in looped form

Sequence: QMTKLATTEELPDEF
- Rabbit serum linear peptides [1]: 0.1
- Rabbit serum looped peptides [1]: 0.6
- Recognition of the peptide by sera of individuals infected by SARS-CoV, form recognized [2]: recognized in linear and in looped form

Sequence: QRCASNKPHVLEDPC
- Rabbit serum linear peptides [1]: 0.1
- Rabbit serum looped peptides [1]: 0.5
- Recognition of the peptide by sera of individuals infected by SARS-CoV, form recognized [2]: recognized in linear and in looped form

Sequence: QTNVVPPALHLVDPQ
- Rabbit serum linear peptides [1]: 0.1
- Rabbit serum looped peptides [1]: 0.4
- Recognition of the peptide by sera of individuals infected by SARS-CoV, form recognized [2]: recognized in linear and in looped form

Sequence: RCASNKPHVLEDPCK
- Rabbit serum linear peptides [1]: 0.1
- Rabbit serum looped peptides [1]: 0.6
- Recognition of the peptide by sera of individuals infected by SARS-CoV, form recognized [2]: recognized in linear and in looped form

Sequence: RMEDAMGQGQNSADP
- Rabbit serum linear peptides [1]: 0.1
- Rabbit serum looped peptides [1]: 0.5
- Recognition of the peptide by sera of individuals infected by SARS-CoV, form recognized [2]: only recognized in looped form

Sequence: SCICTVVQRCASNKP
- Rabbit serum linear peptides [1]: 0.0
- Rabbit serum looped peptides [1]: 0.8
- Recognition of the peptide by sera of individuals infected by SARS-CoV, form recognized [2]: recognized in linear and in looped form

Sequence: TITRMEDAMGQGQNS
- Rabbit serum linear peptides [1]: 0.1
- Rabbit serum looped peptides [1]: 0.6
- Recognition of the peptide by sera of individuals infected by SARS-CoV, form recognized [2]: only recognized in looped form

Sequence: TKLATTEELPDEFVV
- Rabbit serum linear peptides [1]: 0.1
- Rabbit serum looped peptides [1]: 0.6
- Recognition of the peptide by sera of individuals infected by SARS-CoV, form recognized [2]: recognized in linear and in looped form

Sequence: TLIDFYLCFLAFLLF
- Rabbit serum linear peptides [1]: 0.4
- Rabbit serum looped peptides [1]: 0.4
- Control serum LUMC linear peptides [3]: 0.8
- Control serum LUMC looped peptides [3]: 0.8
- Control Serum Blood-Bank Looped peptides [4]: 0.4
- Control serum Blood-bank linear peptides [4]: 0.7

Sequence: TRMEDAMGQGQNSAD
- Rabbit serum linear peptides [1]: 0.4
- Rabbit serum looped peptides [1]: 0.4
- Recognition of the peptide by sera of individuals infected by SARS-CoV, form recognized [2]: only recognized in looped form

Sequence: VLIMLIIFWFSLEIQ
- Rabbit serum linear peptides [1]: 0.4
- Rabbit serum looped peptides [1]: 0.2
- Control serum LUMC linear peptides [3]: 0.7
- Control serum LUMC looped peptides [3]: 0.4
- Control Serum Blood-Bank Looped peptides [4]: 0.7
- Control serum Blood-bank linear peptides [4]: 0.8

Sequence: VQMTKLATTEELPDE
- Rabbit serum linear peptides [1]: 0.3
- Rabbit serum looped peptides [1]: 0.6
- Recognition of the peptide by sera of individuals infected by SARS-CoV, form recognized [2]: recognized in linear and in looped form

Sequence: VQRCASNKPHVLEDP
- Rabbit serum linear peptides [1]: 0.1
- Rabbit serum looped peptides [1]: 0.5
- Recognition of the peptide by sera of individuals infected by SARS-CoV, form recognized [2]: recognized in linear and in looped form

Sequence: VVQMTKLATTEELPD
- Rabbit serum linear peptides [1]: 0.3
- Rabbit serum looped peptides [1]: 0.6
- Recognition of the peptide by sera of individuals infected by SARS-CoV, form recognized [2]: recognized in linear and in looped form

Sequence: VVQRCASNKPHVLED
- Rabbit serum linear peptides [1]: 0.2
- Rabbit serum looped peptides [1]: 0.5
- Recognition of the peptide by sera of individuals infected by SARS-CoV, form recognized [2]: recognized in linear and in looped form

Sequence: YLCFLAFLLFLVLIM
- Rabbit serum linear peptides [1]: 0.3
- Rabbit serum looped peptides [1]: 0.3
- Control serum LUMC linear peptides [3]: 0.4
- Control serum LUMC looped peptides [3]: 0.8
- Control Serum Blood-Bank Looped peptides [4]: 0.6
- Control serum Blood-bank linear peptides [4]: 0.8
